{"source": "PubChem BioAssay AID1444", "about": "(PCMD, 2008)", "target": "E3 ubiquitin-protein ligase Mdm2 (Homo sapiens) (UniProt Q00987)", "sequence (Q00987 whole entry, looked up)": "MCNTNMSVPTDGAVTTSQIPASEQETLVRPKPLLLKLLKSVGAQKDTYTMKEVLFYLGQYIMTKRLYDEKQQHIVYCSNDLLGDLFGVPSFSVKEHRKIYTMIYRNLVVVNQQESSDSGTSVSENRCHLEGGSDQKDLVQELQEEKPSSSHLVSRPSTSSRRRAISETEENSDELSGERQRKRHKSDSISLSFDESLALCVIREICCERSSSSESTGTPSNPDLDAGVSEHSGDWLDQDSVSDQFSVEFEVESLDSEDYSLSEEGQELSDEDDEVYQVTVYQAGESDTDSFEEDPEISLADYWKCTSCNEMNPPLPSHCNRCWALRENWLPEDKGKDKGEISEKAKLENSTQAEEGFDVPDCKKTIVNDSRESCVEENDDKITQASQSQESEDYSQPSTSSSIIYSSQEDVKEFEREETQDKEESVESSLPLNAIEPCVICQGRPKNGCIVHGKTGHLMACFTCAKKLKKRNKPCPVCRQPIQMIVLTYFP", "assay": "wild-type MDM2 reporter signal enhancers, dose response, cell-based, luciferase luminescence (AID 1444)", "details": "MDM2 wild-type luciferase reporter cells, 2 h", "data": [{"smiles": "CC1=NN(c2cccc(C(=O)O)c2)C(=O)/C1=C\\C=C/c1ccccc1", "values": [{"measurement": "EC50", "result": 720, "unit": "nM"}]}]}
